Reference: ChEMBL document CHEMBL1201862, “PubChem BioAssay data set” (2004)
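Five compound concentrations were applied to cells in 96-well plates for 48 hours; endpoints were derived by simple linear interpolation of the resulting dose-response curve. GI50: concentration for 50% inhibition of growth.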 Activity calls are given as the source filed them. Rule as the data show it: active = GI50 up to about 1.1 µM and inactive = higher.

What was measured:
Test in all cases: inhibition of tumour cell growth, NCI panel, 48 h
[1] = tested on: SK-OV-3
[2] = tested on: UACC-62
[3] = tested on: OVCAR-8
[4] = tested on: NCI-H226
[5] = tested on: CAKI-1
[6] = tested on: HOP-62
[7] = tested on: SN12C
[8] = tested on: XF498
[9] = tested on: UACC-257
[10] = tested on: A498
[11] = tested on: HOP-18
[12] = tested on: SR
[13] = tested on: OVCAR-4
[14] = tested on: RXF 393
[15] = tested on: M14
[16] = tested on: HL-60
[17] = tested on: HT-29
[18] = tested on: SK-MEL-2
[19] = tested on: Malme-3M
[20] = tested on: HCT-15
[21] = tested on: DMS-273
[22] = tested on: OVCAR-3
[23] = tested on: DLD-1
[24] = tested on: 786-0
[25] = tested on: ACHN
[26] = tested on: SNB-19
[27] = tested on: SK-MEL-5
[28] = tested on: M19-MEL
[29] = tested on: OVCAR-5
[30] = tested on: LOX IMVI
[31] = tested on: NCI-H522
[32] = tested on: NCI-H23
[33] = tested on: SF-539
[34] = tested on: DMS-114
[35] = tested on: SF-295
[36] = tested on: CCRF-CEM
[37] = tested on: IGROV-1
[38] = tested on: A549
[39] = tested on: LXFL 529
[40] = tested on: K562
[41] = tested on: SK-MEL-28
[42] = tested on: COLO 205
[43] = tested on: EKVX
[44] = tested on: SW-620
[45] = tested on: NCI-H460
[46] = tested on: KM-20L2
[47] = tested on: HCC 2998
[48] = tested on: SF-268
[49] = tested on: SNB-75
[50] = tested on: MOLT-4
[51] = tested on: HCT-116
[52] = tested on: UO-31
[53] = tested on: TK-10
[54] = tested on: U-251
[55] = tested on: KM12
[56] = tested on: HOP-92
[57] = tested on: SNB-78
[58] = tested on: RPMI-8226

C/C(=N/NC(=O)C[N+](C)(C)C)C(CN(C)C)C(=O)Nc1ccccc1 (configuration not stated)
GI50 [1]: > 100 µM (inactive)
GI50 [2]: > 100 µM (inactive)
GI50 [3]: > 100 µM (inactive)
GI50 [4]: > 100 µM (inactive)
GI50 [5]: > 100 µM (inactive)
GI50 [6]: > 100 µM (inactive)
GI50 [7]: > 100 µM (inactive)
GI50 [8]: > 100 µM (inactive)
GI50 [9]: > 100 µM (inactive)
GI50 [10]: > 100 µM (inactive)
GI50 [11]: > 100 µM (inactive)
GI50 [12]: > 100 µM (inactive)
GI50 [13]: > 100 µM (inactive)
GI50 [14]: > 100 µM (inactive)
GI50 [15]: > 100 µM (inactive)
GI50 [16]: > 100 µM (inactive)
GI50 [17]: > 100 µM (inactive)
GI50 [18]: > 100 µM (inactive)
GI50 [19]: > 100 µM (inactive)
GI50 [20]: > 100 µM
GI50 [21]: > 100 µM (inactive)
GI50 [22]: > 100 µM (inactive)
GI50 [23]: > 100 µM (inactive)
GI50 [24]: > 100 µM (inactive)
GI50 [25]: > 100 µM (inactive)
GI50 [26]: > 100 µM (inactive)
GI50 [27]: > 100 µM (inactive)
GI50 [28]: > 100 µM (inactive)
GI50 [29]: > 100 µM (inactive)
GI50 [30]: > 100 µM (inactive)
GI50 [31]: > 100 µM (inactive)
GI50 [32]: > 100 µM (inactive)
GI50 [33]: > 100 µM (inactive)
GI50 [34]: > 100 µM (inactive)
GI50 [35]: > 100 µM (inactive)
GI50 [36]: > 100 µM (inactive)
GI50 [37]: > 100 µM (inactive)
GI50 [38]: > 100 µM (inactive)
GI50 [39]: > 100 µM (inactive)
GI50 [40]: > 100 µM (inactive)
GI50 [41]: > 100 µM (inactive)
GI50 [42]: > 100 µM (inactive)
GI50 [43]: > 100 µM (inactive)
GI50 [44]: > 100 µM (inactive)
GI50 [45]: > 100 µM (inactive)
GI50 [46]: > 100 µM (inactive)
GI50 [47]: 96.8 µM (inactive)
GI50 [48]: > 100 µM (inactive)
GI50 [49]: > 100 µM (inactive)
GI50 [50]: > 100 µM (inactive)
GI50 [51]: > 100 µM (inactive)
GI50 [52]: > 100 µM (inactive)
GI50 [53]: > 100 µM (inactive)
GI50 [54]: > 100 µM (inactive)
GI50 [55]: > 100 µM (inactive)

O=C(Cc1ccccc1[N+](=O)[O-])C(CO)c1ccccc1[N+](=O)[O-] (configuration not stated)
GI50 [1]: > 100 µM (inactive)
GI50 [2]: 83 µM (inactive)
GI50 [3]: 89.5 µM (inactive)
GI50 [4]: 15.6 µM (inactive)
GI50 [5]: 40.5 µM (inactive)
GI50 [6]: > 100 µM (inactive)
GI50 [7]: > 100 µM (inactive)
GI50 [8]: 20.8 µM (inactive)
GI50 [9]: 72.3 µM (inactive)
GI50 [10]: 80.4 µM (inactive)
GI50 [11]: 4.17 µM (inactive)
GI50 [13]: 96.4 µM (inactive)
GI50 [56]: 23.6 µM (inactive)
GI50 [14]: 92.5 µM (inactive)
GI50 [15]: > 100 µM (inactive)
GI50 [16]: 67.1 µM (inactive)
GI50 [17]: 26.2 µM (inactive)
GI50 [18]: > 100 µM (inactive)
GI50 [19]: 79.4 µM (inactive)
GI50 [20]: > 100 µM
GI50 [21]: > 100 µM (inactive)
GI50 [22]: 66.1 µM (inactive)
GI50 [23]: > 100 µM (inactive)
GI50 [24]: > 100 µM (inactive)
GI50 [25]: 38.2 µM (inactive)
GI50 [57]: > 100 µM (inactive)
GI50 [26]: > 100 µM (inactive)
GI50 [27]: 31.7 µM (inactive)
GI50 [28]: 95.9 µM (inactive)
GI50 [29]: > 100 µM (inactive)
GI50 [30]: 91.8 µM (inactive)
GI50 [31]: 16.8 µM (inactive)
GI50 [32]: 45.3 µM (inactive)
GI50 [33]: > 100 µM (inactive)
GI50 [34]: 67.1 µM (inactive)
GI50 [35]: > 100 µM (inactive)
GI50 [36]: 71.4 µM (inactive)
GI50 [37]: > 100 µM (inactive)
GI50 [38]: 72.1 µM (inactive)
GI50 [39]: 57.1 µM (inactive)
GI50 [40]: 71.1 µM (inactive)
GI50 [41]: > 100 µM (inactive)
GI50 [42]: > 100 µM (inactive)
GI50 [43]: 70.6 µM (inactive)
GI50 [44]: > 100 µM (inactive)
GI50 [45]: 96.8 µM (inactive)
GI50 [46]: > 100 µM (inactive)
GI50 [47]: > 100 µM (inactive)
GI50 [48]: 35.2 µM (inactive)
GI50 [49]: 67.3 µM (inactive)
GI50 [50]: 35.7 µM (inactive)
GI50 [51]: 70.5 µM (inactive)
GI50 [52]: 19.9 µM (inactive)
GI50 [53]: > 100 µM (inactive)
GI50 [54]: > 100 µM (inactive)
GI50 [55]: > 100 µM (inactive)
GI50 [58]: 78.7 µM (inactive)
